# Reference: DBAASP
# Several values for one entry are separate records, joined by “and”; a condition that tells them apart may be missing. Equal values may be shown once.
# Tests used:
# Assay in all cases: ≥ marks a high value that may be exact or a test limit, other limits are often not marked, values filed in µg/mL are converted to µM
# [1] = tested on: Bacillus subtilis CMCC 63501
# [2] = tested on: Salmonella enterica subsp. enterica serovar Typhimurium ATCC 14028
# Acinetobacter baumannii = tested on: Acinetobacter baumannii
# [3] = tested on: Salmonella enterica subsp. enterica serovar Pullorum ATCC 7913
# [4] = tested on: Bacillus cereus CGMCC 1.932
# [5] = tested on: Enterococcus faecalis ATCC 29212
# [6] = tested on: Staphylococcus epidermidis ATCC 12228
# Escherichia coli 078 = tested on: Escherichia coli 078
# [7] = tested on: Salmonella typhimurium ATCC 7731
# [8] = tested on: Staphylococcus aureus ATCC 43300
# [9] = tested on: Pseudomonas aeruginosa PAO1
# [10] = tested on: Pseudomonas aeruginosa ATCC 27853
# Escherichia coli K99 = tested on: Escherichia coli K99
# [11] = tested on: Staphylococcus aureus ATCC 25923
# Escherichia coli UB1005 = tested on: Escherichia coli UB1005
# [12] = tested on: Listeria monocytogenes CGMCC 1.1075
# Escherichia coli K88 = tested on: Escherichia coli K88
# [13] = tested on: Pseudomonas aeruginosa NBRC 13275
# [14] = tested on: Staphylococcus aureus NBRC 13276
# [15] = tested on: Escherichia coli DH5alpha
# [16] = tested on: Cutibacterium acnes JCM 6473
# [17] = tested on: Porphyromonas gingivalis ATCC 33277
# [18] = tested on: Streptococcus mutans JCM 5705
# [19] = tested on: Candida albicans NBRC 1385
# [20] = tested on: Bacillus subtilis KCTC 2217
# [21] = tested on: Acinetobacter baumannii KCTC 2508
# [22] = tested on: Staphylococcus hominis ATCC 27844
# [23] = tested on: Staphylococcus aureus ATCC 6538
# [24] = tested on: Pseudomonas aeruginosa ATCC 15442
# [25] = tested on: Escherichia coli ATCC 25922
# [26] = tested on: Enterococcus faecalis ATCC 2912
# [27] = tested on: Candida albicans ATCC 10231
# [28] = tested on: Enterococcus faecalis NCTC 12697
# [29] = tested on: Klebsiella pneumoniae ATCC 43816
# [30] = tested on: Staphylococcus aureus NCTC 10788
# [31] = tested on: Candida albicans NCTC 1467
# [32] = tested on: Escherichia coli NCTC 10418
# [33] = tested on: Staphylococcus aureus NCTC 12493
# Escherichia coli BL21AI = tested on: Escherichia coli BL21AI
# [34] = tested on: Micrococcus luteus DSM 1790
# [35] = tested on: Streptococcus agalactiae CECT 183T
# [36] = tested on: Enterococcus faecalis CECT 481
# [37] = tested on: Staphylococcus aureus CECT 435
# Staphylococcus aureus MR = tested on: Staphylococcus aureus MR
smiles,measurement,setting,value
NCC(=O)N[C@@H](CCCN=C(N)N)C(=O)N[C@@H](Cc1c[nH]c2ccccc12)C(=O)N[C@@H](CCCN=C(N)N)C(=O)N[C@@H](Cc1c[nH]c2ccccc12)C(=O)N[C@@H](Cc1c[nH]c2ccccc12)C(=O)N[C@@H](Cc1c[nH]c2ccccc12)C(=O)N[C@@H](CCCN=C(N)N)C(=O)N[C@@H](Cc1c[nH]c2ccccc12)C(=O)N[C@@H](CCCN=C(N)N)C(=O)N[C@@H](Cc1c[nH]c2ccccc12)C(N)=O [GRWRWWWRWRW],MIC,[1],8 µM
same,MIC,[2],2 µM
same,MIC,Acinetobacter baumannii,2 µM
same,MIC,[3],2 µM
same,MIC,[4],8 µM
same,MIC,[5],2 µM
same,MIC,[6],4 µM
same,MIC,Escherichia coli 078,4 µM
same,MIC,[7],16 µM
same,MIC,[8],2 µM
same,MIC,[9],4 µM
same,MIC,[10],8 µM
same,MIC,Escherichia coli K99,2 µM
same,MIC,[11],2 µM
same,MIC,Escherichia coli UB1005,4 µM
same,MIC,[12],2 µM
same,MIC,Escherichia coli K88,2 µM
CC(=O)N[C@@H](CCCCN)C(=O)N[C@@H](Cc1ccccc1)C(=O)N[C@@H](CC(C)C)C(=O)N[C@@H](Cc1cnc[nH]1)C(=O)N[C@@H](CO)C(=O)N[C@@H](C)C(=O)N[C@@H](CCCCN)C(=O)N[C@@H](CCCCN)C(=O)N[C@@H](Cc1ccccc1)C(=O)NCC(=O)N[C@@H](CCCCN)C(=O)N[C@@H](C)C(=O)N[C@@H](Cc1ccccc1)C(=O)N[C@H](C(N)=O)C(C)C [KFLHSAKKFGKAFV],MIC,[13],≥ 200 µM
same,MIC,[14],≥ 400 µM
same,MIC,[15],≥ 200 µM
CC[C@H](C)[C@H](NC(=O)[C@H](CCCN=C(N)N)NC(=O)CNC(=O)[C@H](Cc1ccc(O)cc1)NC(=O)[C@H](CCC(N)=O)NC(=O)[C@H](CC(N)=O)NC(=O)[C@@H](N)CCCCN)C(=O)N[C@@H](CCCN=C(N)N)C(=O)N[C@H](C(=O)N[C@@H](CC(C)C)C(=O)N[C@@H](CCC(N)=O)C(=O)N[C@@H](CCCN=C(N)N)C(=O)N[C@@H](Cc1ccccc1)C(=O)N[C@@H](CC(N)=O)C(=O)N[C@@H](CCC(N)=O)C(=O)N[C@@H](CCCN=C(N)N)C(=O)O)C(C)C [KNQYGRIRVLQRFNQR],MIC,[16],≥ 1020 µM
same,MIC,[17],≥ 1020 µM
same,MIC,[18],≥ 1020 µM
same,MIC,[19],≥ 1020 µM
CC(C)C[C@H](NC(=O)[C@H](CCCCN)NC(=O)[C@H](CCCCN)NC(=O)[C@H](CC(C)C)NC(=O)[C@H](CC(C)C)NC(=O)[C@@H]1CCCN1C(=O)[C@H](CCCCN)NC(=O)[C@H](CCCCN)NC(=O)[C@H](CC(C)C)NC(=O)[C@H](CC(C)C)NC(=O)[C@H](CCCCN)NC(=O)[C@H](CCCCN)NC(=O)[C@H](Cc1c[nH]c2ccccc12)NC(=O)[C@@H](N)CCCCN)C(N)=O [KWKKLLKKPLLKKL],MIC,[20],3.13 µM
same,MIC,[11],1.56 µM and > 0.78 µM
same,MIC,[21],12.5 µM
CSCC[C@H](NC(=O)[C@H](CCCN=C(N)N)NC(=O)[C@H](CO)NC(=O)CNC(=O)[C@H](CCCCN)NC(=O)[C@@H](N)CCCN=C(N)N)C(=O)NCC(=O)N[C@@H](CCCCN)C(=O)N[C@@H](CCCCN)C(=O)N[C@@H](CS)C(=O)N[C@@H](CCC(=O)O)C(=O)N[C@@H](CS)C(=O)N1CCC[C@H]1C(=O)O [RKGSRMGKKCECP],MIC,[22],8.3 µM
same,MIC,[23],> 40 µM
same,MIC,[24],2.1 µM
same,MIC,[25],2.1 µM
same,MIC,[26],8.3 µM
same,MIC,[27],13.5 µM
CSCC[C@H](NC(=O)[C@H](CCC(=O)O)NC(=O)[C@H](CCCCN)NC(=O)[C@H](CC(C)C)NC(=O)[C@H](CCCCN)NC(=O)CNC(=O)[C@H](Cc1c[nH]c2ccccc12)NC(=O)[C@H](CC(C)C)NC(=O)[C@@H](N)CO)C(=O)N[C@@H](C)C(=O)N[C@@H](C)C(=O)N[C@@H](C)C(=O)N[C@@H](C)C(=O)NCC(=O)N[C@@H](CCCCN)C(=O)N[C@@H](C)C(=O)N[C@@H](C)C(=O)N[C@@H](CC(C)C)C(=O)N[C@@H](CC(N)=O)C(=O)N[C@@H](C)C(=O)N[C@H](C(=O)N[C@@H](CC(N)=O)C(=O)NCC(=O)N[C@@H](CC(C)C)C(=O)N[C@H](C(=O)N[C@@H](CC(N)=O)C(=O)N[C@@H](CCC(N)=O)C(N)=O)C(C)C)C(C)C [SLWGKLKEMAAAAGKAALNAVNGLVNQ],MIC,[28],≥ 32 µM
same,MIC,[29],≥ 32 µM
same,MIC,[30],8 µM
same,MIC,[31],≥ 64 µM
same,MIC,[10],64 µM
same,MIC,[32],8 µM
same,MIC,[33],≥ 32 µM
CC[C@H](C)[C@H](NC(=O)[C@H](CCCN=C(N)N)NC(=O)[C@H](CCCN=C(N)N)NC(=O)[C@@H]1CCCN1C(=O)[C@@H]1CCCN1C(=O)[C@@H]1CCCN1C(=O)[C@@H]1CCCN1C(=O)[C@H](CCCN=C(N)N)NC(=O)[C@@H]1CCCN1C(=O)[C@H](CC(C)C)NC(=O)[C@H](Cc1ccc(O)cc1)NC(=O)[C@@H]1CCCN1C(=O)[C@@H]1CCCN1C(=O)[C@H](CCCCN)NC(=O)[C@H](CC(=O)O)NC(=O)[C@@H](N)C(C)C)C(=O)N[C@@H](Cc1ccc(O)cc1)C(=O)N[C@@H](CC(N)=O)C(=O)O [VDKPPYLPRPPPPRRIYN],MIC,Escherichia coli BL21AI,≥ 57.5 µM
same,MIC,[34],28.7 µM
CC[C@H](C)[C@H](NC(=O)[C@H](CC(C)C)NC(=O)[C@@H](NC(=O)[C@@H](NC(=O)[C@@H]1CCCN1C(=O)[C@H](CS)NC(=O)[C@H](CO)NC(=O)CNC(=O)[C@@H]1CCCN1C(=O)[C@H](CCCCN)NC(=O)[C@@H](NC(=O)[C@H](CO)NC(=O)[C@@H](NC(=O)[C@@H]1CCCN1C(=O)CNC(=O)[C@H](CCCCN)NC(=O)[C@@H](NC(=O)[C@@H]1CCCN1C(=O)[C@H](CCC(=O)O)NC(=O)[C@H](CCC(N)=O)NC(=O)[C@H](C)NC(=O)[C@H](CCCCN)NC(=O)[C@@H](N)C(C)C)C(C)C)C(C)C)[C@@H](C)O)[C@@H](C)CC)[C@@H](C)CC)C(=O)N[C@@H](CCCN=C(N)N)C(=O)N[C@@H](CS)C(=O)N[C@@H](C)C(=O)O [VKAQEPVKGPVSTKPGSCPIILIRCA],MIC,[35],≥ 95.1 µM
same,MIC,[36],≥ 47.5 µM
same,MIC,[37],≥ 47.5 µM
same,MIC,Staphylococcus aureus MR,≥ 47.5 µM
